# Assays:
# Assay type in all cases: physicochemical
# [1] = Visual observation at 0° C. after 7 days (test CIPAC MT39); details: 10% Alkamuls RC, remainder the solvent, 7 days at 0° C.
# Description: (§1) By mixing the ingredients, formulations of various phytosanitary active ingredients of the type emulsifiable concentrate type (EC) are prepared. […] The following tests are conducted: Visual observation at 0° C.—The formulation is placed for 7 days at 0° C. and the aspect of the formulation is noted and the presence of crystals is optionally located (test CIPAC MT39)
# [2] = Visual observation at 25° C. of EC formulation (aspect, presence of crystals); details: 10% Alkamuls RC, remainder the solvent
# Description: as §1, with “25°” for “0°”, “C.—The” for “C.—The formulation is placed for 7 days at 0° C. and the”, “located” for “located (test CIPAC MT39)”
# [3] = Visual observation at 0° C. with nucleation (crystal of active material introduced, again 7 days at 0° C.); details: 10% Alkamuls RC, remainder the solvent, seeded with crystal, further 7 days at 0° C.
# Description: By mixing the ingredients, formulations of various phytosanitary active ingredients of the type emulsifiable concentrate type (EC) are prepared. The formulations comprise: […]
# 10% by weight of the surfactant Alkamuls® RC, marketed by Rhodia
# and, as a solvent, the remainder of the compound of the examples.
# The following tests are conducted:
# Visual observation at 0° C. with nucleation: A crystal of active material is introduced into the formulation having spent 7 days at 0° C. formulation, and the formulation is again placed for 7 days at 0° C. The aspect of the formulation is noted and the presence of crystals is optionally located.
# [4] = EC formulation: Azoxystrobin 25% by weight
# [5] = EC formulation: Difenconazole 25% by weight
# [6] = EC formulation: Dimethoate 40% by weight
# [7] = EC formulation: Oxyfluorfen 22% by weight
# [8] = EC formulation: Phenmedipham 16% by weight
# [9] = EC formulation: Propanil 36% by weight
# [10] = EC formulation: Propoxur 20% by weight
# [11] = EC formulation: Tebuconazole 25% by weight
# [12] = EC formulation: Trifluralin 40% by weight
compound,measurement,setting,value
CCOCCCC(=O)N(C)C [Compound 4],Aspect at 0° C.,[1]; [4],Crystals
same,Aspect at 0° C.,[1]; [5],Limpid
same,Aspect at 0° C.,[1]; [6],Limpid
same,Aspect at 0° C.,[1]; [7],Cloudy
same,Aspect at 0° C.,[1]; [8],Limpid
same,Aspect at 0° C.,[1]; [9],Limpid
same,Aspect at 0° C.,[1]; [10],Limpid
same,Aspect at 0° C.,[1]; [11],Limpid
same,Aspect at 0° C.,[1]; [12],Limpid
same,Aspect at 25° C.,[2]; [4],Crystals
same,Aspect at 25° C.,[2]; [5],Limpid
same,Aspect at 25° C.,[2]; [6],Limpid
same,Aspect at 25° C.,[2]; [7],Cloudy
same,Aspect at 25° C.,[2]; [8],Limpid
same,Aspect at 25° C.,[2]; [9],Limpid
same,Aspect at 25° C.,[2]; [10],Limpid
same,Aspect at 25° C.,[2]; [11],Limpid
same,Aspect at 25° C.,[2]; [12],Limpid
same,Aspect at 0° C. with nucleation,[3]; [4],Crystals
same,Aspect at 0° C. with nucleation,[3]; [5],Limpid
same,Aspect at 0° C. with nucleation,[3]; [6],Limpid
same,Aspect at 0° C. with nucleation,[3]; [7],Cloudy
same,Aspect at 0° C. with nucleation,[3]; [8],Limpid
same,Aspect at 0° C. with nucleation,[3]; [9],Limpid
same,Aspect at 0° C. with nucleation,[3]; [10],Limpid
same,Aspect at 0° C. with nucleation,[3]; [11],Limpid
same,Aspect at 0° C. with nucleation,[3]; [12],Crystals

# Source: patent publication US20150208645A1, “PHYTOSANITARY COMPOSITIONS COMPRISING AN ETHER-AMIDE COMPOUND” (priority 2012, published 2015)
